Source: patent US20230085307A1, “PYRIDAZINONE COMPOUND AND HERBICIDE” (NISSAN CHEMICAL CORPORATION, priority 2019, published 2023)

Tests used:
redroot pigweed [1] = experiment: Test Example 4: herbicidal effect by soil treatment (Table 19, symbol N); assay type: in vivo, redroot pigweed (Amaranthus retroflexus); conditions: amount of applied herbicide 320 g/ha
In short: (§1)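 Emulsion of test compound, water-diluted to predetermined amount, sprayed on soil after sowing (seed depth ~1.5 cm, sterilized diluvial soil). Greenhouse, 25–30° C. Effect graded at three weeks post-spray.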

persian speedwell [2] = experiment: Test Example 5: herbicidal effect by foliage application, plastic box (Table 20, symbol R); assay type: in vivo, Persian speedwell (Veronica persica); conditions: foliage application, 320 g/ha, evaluated three weeks after application
In short: (§2)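 Post-emergence foliar test in sterilized diluvial soil. Compound applied as water-diluted emulsion at a predetermined rate to 14-day-old plants; evaluation at three weeks.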

Italian ryegrass [3] = experiment: Test Example 5: herbicidal effect by foliage application, plastic box (Table 20, symbol K); assay type: in vivo, Italian ryegrass (Lolium multiflorum); conditions: foliage application, 320 g/ha, evaluated three weeks after application
In short: as §2

windgrass [4] = experiment: Test Example 4: herbicidal effect by soil treatment (Table 19, symbol L); assay type: in vivo, windgrass (Apera spica-venti); conditions: amount of applied herbicide 320 g/ha
In short: as §1

barnyard grass [5] = experiment: Test Example 3: herbicidal effect by foliage application, Wagner pot (Table 18, symbol H); assay type: in vivo, barnyard grass (Echinochloa crus-galli)
In short: (§3)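 Plants were sown in alluvial soil held under 0.1–0.5 cm standing water and grown 14 days in a greenhouse at 25–30 °C. An emulsifiable formulation, water-diluted to the set dose, was then sprayed onto the foliage, and effects were scored three weeks later using previously defined criteria.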

lambsquarters [6] = experiment: Test Example 4: herbicidal effect by soil treatment (Table 19, symbol O); assay type: in vivo, lambsquarters (Chenopodium album); conditions: amount of applied herbicide 320 g/ha
In short: as §1

windgrass [7] = experiment: Test Example 5: herbicidal effect by foliage application, plastic box (Table 20, symbol L); assay type: in vivo, windgrass (Apera spica-venti); conditions: foliage application, 320 g/ha, evaluated three weeks after application
In short: as §2

blackgrass [8] = experiment: Test Example 5: herbicidal effect by foliage application, plastic box (Table 20, symbol J); assay type: in vivo, blackgrass (Alopecurus myosuroides); conditions: foliage application, 320 g/ha, evaluated three weeks after application
In short: as §2

false cleavers [9] = experiment: Test Example 4: herbicidal effect by soil treatment (Table 19, symbol Q); assay type: in vivo, false cleavers (Galium spurium); conditions: amount of applied herbicide 320 g/ha
In short: as §1

barnyard grass [10] = experiment: Test Example 5: herbicidal effect by foliage application, plastic box (Table 20, symbol H); assay type: in vivo, barnyard grass (Echinochloa crus-galli); conditions: foliage application, 320 g/ha, evaluated three weeks after application
In short: as §2

chickweed [11] = experiment: Test Example 4: herbicidal effect by soil treatment (Table 19, symbol P); assay type: in vivo, common chickweed (Stellaria media); conditions: amount of applied herbicide 320 g/ha
In short: as §1

velvetleaf [12] = experiment: Test Example 4: herbicidal effect by soil treatment (Table 19, symbol M); assay type: in vivo, velvetleaf (Abutilon theophrasti); conditions: amount of applied herbicide 320 g/ha
In short: as §1

Chinese sprangletop = experiment: Test Example 3: herbicidal effect by foliage application, Wagner pot (Table 18, symbol D); assay type: in vivo, chinese sprangletop (Leptochloa chinensis)
In short: as §3

false cleavers [13] = experiment: Test Example 5: herbicidal effect by foliage application, plastic box (Table 20, symbol Q); assay type: in vivo, false cleavers (Galium spurium); conditions: foliage application, 320 g/ha, evaluated three weeks after application
In short: as §2

southern crabgrass [14] = experiment: Test Example 4: herbicidal effect by soil treatment (Table 19, symbol F); assay type: in vivo, southern crabgrass (Digitaria ciliaris); conditions: amount of applied herbicide 320 g/ha
In short: as §1

green foxtail [15] = experiment: Test Example 4: herbicidal effect by soil treatment (Table 19, symbol G); assay type: in vivo, green foxtail (Setaria viridis); conditions: amount of applied herbicide 320 g/ha
In short: as §1

rice flat sedge = experiment: Test Example 3: herbicidal effect by foliage application, Wagner pot (Table 18, symbol E); assay type: in vivo, rice flat sedge (Cyperus iria)
In short: as §3

redroot pigweed [16] = experiment: Test Example 5: herbicidal effect by foliage application, plastic box (Table 20, symbol N); assay type: in vivo, redroot pigweed (Amaranthus retroflexus); conditions: foliage application, 320 g/ha, evaluated three weeks after application
In short: as §2

blackgrass [17] = experiment: Test Example 4: herbicidal effect by soil treatment (Table 19, symbol J); assay type: in vivo, blackgrass (Alopecurus myosuroides); conditions: amount of applied herbicide 320 g/ha
In short: as §1

persian speedwell [18] = experiment: Test Example 4: herbicidal effect by soil treatment (Table 19, symbol R); assay type: in vivo, Persian speedwell (Veronica persica); conditions: amount of applied herbicide 320 g/ha
In short: as §1

wild oat [19] = experiment: Test Example 4: herbicidal effect by soil treatment (Table 19, symbol I); assay type: in vivo, wild oat (Avena fatua); conditions: amount of applied herbicide 320 g/ha
In short: as §1

southern crabgrass [20] = experiment: Test Example 5: herbicidal effect by foliage application, plastic box (Table 20, symbol F); assay type: in vivo, southern crabgrass (Digitaria ciliaris); conditions: foliage application, 320 g/ha, evaluated three weeks after application
In short: as §2

chickweed [21] = experiment: Test Example 5: herbicidal effect by foliage application, plastic box (Table 20, symbol P); assay type: in vivo, common chickweed (Stellaria media); conditions: foliage application, 320 g/ha, evaluated three weeks after application
In short: as §2

lambsquarters [22] = experiment: Test Example 5: herbicidal effect by foliage application, plastic box (Table 20, symbol O); assay type: in vivo, lambsquarters (Chenopodium album); conditions: foliage application, 320 g/ha, evaluated three weeks after application
In short: as §2

velvetleaf [23] = experiment: Test Example 5: herbicidal effect by foliage application, plastic box (Table 20, symbol M); assay type: in vivo, velvetleaf (Abutilon theophrasti); conditions: foliage application, 320 g/ha, evaluated three weeks after application
In short: as §2

green foxtail [24] = experiment: Test Example 5: herbicidal effect by foliage application, plastic box (Table 20, symbol G); assay type: in vivo, green foxtail (Setaria viridis); conditions: foliage application, 320 g/ha, evaluated three weeks after application
In short: as §2

wild oat [25] = experiment: Test Example 5: herbicidal effect by foliage application, plastic box (Table 20, symbol I); assay type: in vivo, wild oat (Avena fatua); conditions: foliage application, 320 g/ha, evaluated three weeks after application
In short: as §2

Italian ryegrass [26] = experiment: Test Example 4: herbicidal effect by soil treatment (Table 19, symbol K); assay type: in vivo, Italian ryegrass (Lolium multiflorum); conditions: amount of applied herbicide 320 g/ha
In short: as §1

barnyard grass [27] = experiment: Test Example 4: herbicidal effect by soil treatment (Table 19, symbol H); assay type: in vivo, barnyard grass (Echinochloa crus-galli); conditions: amount of applied herbicide 320 g/ha
In short: as §1

[28] = amount of applied herbicide 320 g/ha

SMILES | N: redroot pigweed, herbicidal effect rating (redroot pigweed [1]) | herbicidal effect on R: persian speedwell (persian speedwell [2]) | herbicidal effect on K: Italian ryegrass (Italian ryegrass [3]) | L: windgrass, herbicidal effect rating (windgrass [4]) | O: lambsquarters, herbicidal effect rating (lambsquarters [6]) | herbicidal effect on L: windgrass (windgrass [7]) | herbicidal effect on J: blackgrass (blackgrass [8]) | Q: false cleavers, herbicidal effect rating (false cleavers [9]) | herbicidal effect on H: barnyard grass (barnyard grass [10]) | P: chickweed, herbicidal effect rating (chickweed [11]) | M: velvetleaf, herbicidal effect rating (velvetleaf [12]) | herbicidal effect on Q: false cleavers (false cleavers [13]) | F: southern crabgrass, herbicidal effect rating (southern crabgrass [14]) | G: green foxtail, herbicidal effect rating (green foxtail [15]) | herbicidal effect on N: redroot pigweed (redroot pigweed [16]) | J: blackgrass, herbicidal effect rating (blackgrass [17]) | R: persian speedwell, herbicidal effect rating (persian speedwell [18]) | I: wild oat, herbicidal effect rating (wild oat [19]) | herbicidal effect on F: southern crabgrass (southern crabgrass [20]) | herbicidal effect on P: chickweed (chickweed [21]) | also measured
CCOc1ccccc1-c1sc2ccc(Cl)cc2c1-c1c(O)c(C)nn(C)c1=O [2-105] | 5 (Herbicidal rate of 90% or more (almost completely withered)) | 5 (Herbicidal rate of 90% or more (almost completely withered)) | 0 (Herbicidal rate of 5% or less (almost no effect)) | 0 (Herbicidal rate of 5% or less (almost no effect)) | 4 (Herbicidal rate of 70% or more and less than 90%) | 0 (Herbicidal rate of 5% or less (almost no effect)) | 0 (Herbicidal rate of 5% or less (almost no effect)) | 4 (Herbicidal rate of 70% or more and less than 90%) | 0 (Herbicidal rate of 5% or less (almost no effect)) | 3 (Herbicidal rate of 40% or more and less than 70%) | 3 (Herbicidal rate of 40% or more and less than 70%) | 5 (Herbicidal rate of 90% or more (almost completely withered)) | 3 (Herbicidal rate of 40% or more and less than 70%) | 2 (Herbicidal rate of 20% or more and less than 40%) | 5 (Herbicidal rate of 90% or more (almost completely withered)) | 0 (Herbicidal rate of 5% or less (almost no effect)) | 3 (Herbicidal rate of 40% or more and less than 70%) | 0 (Herbicidal rate of 5% or less (almost no effect)) | 4 (Herbicidal rate of 70% or more and less than 90%) | 5 (Herbicidal rate of 90% or more (almost completely withered)) | herbicidal effect on H (barnyard grass), rating 0-5 (barnyard grass [5]; 320 g/ha): 4 (Herbicidal rate of 70% or more and less than 90%); herbicidal effect on D (Chinese sprangletop), rating 0-5 (Chinese sprangletop; 320 g/ha): 0 (Herbicidal rate of 5% or less (almost no effect)); herbicidal effect on E (rice flat sedge), rating 0-5 (rice flat sedge; 320 g/ha): 3 (Herbicidal rate of 40% or more and less than 70%); herbicidal effect on O: lambsquarters (lambsquarters [22]): 3 (Herbicidal rate of 40% or more and less than 70%); herbicidal effect on M: velvetleaf (velvetleaf [23]): 5 (Herbicidal rate of 90% or more (almost completely withered)); herbicidal effect on G: green foxtail (green foxtail [24]): 0 (Herbicidal rate of 5% or less (almost no effect)); herbicidal effect on I: wild oat (wild oat [25]): 1 (Herbicidal rate of 5% or more and less than 20%); K: Italian ryegrass, herbicidal effect rating (Italian ryegrass [26]): 0 (Herbicidal rate of 5% or less (almost no effect)); H: barnyard grass, herbicidal effect rating (barnyard grass [27]): 3 (Herbicidal rate of 40% or more and less than 70%)
CCCC(=O)Oc1c(C)nn(C)c(=O)c1-c1c(-c2ccc(OC)c(OC)c2)sc2ccc(Cl)cc12 [2-124] | 0 (Herbicidal rate of 5% or less (almost no effect)) | 5 (Herbicidal rate of 90% or more (almost completely withered)) | 0 (Herbicidal rate of 5% or less (almost no effect)) | 0 (Herbicidal rate of 5% or less (almost no effect)) | 3 (Herbicidal rate of 40% or more and less than 70%) | 0 (Herbicidal rate of 5% or less (almost no effect)) | 0 (Herbicidal rate of 5% or less (almost no effect)) | 0 (Herbicidal rate of 5% or less (almost no effect)) | 0 (Herbicidal rate of 5% or less (almost no effect)) | 0 (Herbicidal rate of 5% or less (almost no effect)) | 0 (Herbicidal rate of 5% or less (almost no effect)) | 0 (Herbicidal rate of 5% or less (almost no effect)) | 1 (Herbicidal rate of 5% or more and less than 20%) | 0 (Herbicidal rate of 5% or less (almost no effect)) | 2 (Herbicidal rate of 20% or more and less than 40%) | 0 (Herbicidal rate of 5% or less (almost no effect)) | 0 (Herbicidal rate of 5% or less (almost no effect)) | 0 (Herbicidal rate of 5% or less (almost no effect)) | 0 (Herbicidal rate of 5% or less (almost no effect)) | 2 (Herbicidal rate of 20% or more and less than 40%) | herbicidal effect on H: barnyard grass (barnyard grass [5]; [28]): 3 (Herbicidal rate of 40% or more and less than 70%); herbicidal effect on D: Chinese sprangletop (Chinese sprangletop; [28]): 1 (Herbicidal rate of 5% or more and less than 20%); herbicidal effect on E: rice flat sedge (rice flat sedge; [28]): 0 (Herbicidal rate of 5% or less (almost no effect)); herbicidal effect on O: lambsquarters (lambsquarters [22]): 0 (Herbicidal rate of 5% or less (almost no effect)); herbicidal effect on M: velvetleaf (velvetleaf [23]): 1 (Herbicidal rate of 5% or more and less than 20%); herbicidal effect on G: green foxtail (green foxtail [24]): 0 (Herbicidal rate of 5% or less (almost no effect)); herbicidal effect on I: wild oat (wild oat [25]): 0 (Herbicidal rate of 5% or less (almost no effect)); K: Italian ryegrass, herbicidal effect rating (Italian ryegrass [26]): 0 (Herbicidal rate of 5% or less (almost no effect)); H: barnyard grass, herbicidal effect rating (barnyard grass [27]): 0 (Herbicidal rate of 5% or less (almost no effect))
